Source: patent US9744164B2, “Neuroprotective polyphenol analogs” (Salk Institute for Biological Studies, priority 2011, dated 2017)

Columns and labels:
HT22 cells = test: in vitro ischemia assay (HT22 cell IAA assay); assay type: cell-based, mouse; conditions: for improvement of neuroprotective activity/potency over Fisetin: relative to Fisetin, in vitro ischemia; for EC50 in vitro ischemia: HT22 cells, 20 μM IAA 2 hr, viability by MTT after 24 hr, 'no' = no protection
Description: For these studies, cultured HT22 mouse hippocampal cells were used as an in vitro stroke assay. HT22 cells were treated with iodoacetic acid (IAA), an irreversible inhibitor of glyceraldehyde 3-phosphate dehydrogenase (G3PDH) for 2 hr alone or in the presence of varying concentrations of Fisetin. G3PDH is an enzyme of the glycolysis pathway, which catalyzes the synthesis of 1,3-bisphosphoglycerate, a “high energy” intermediate used for the synthesis of ATP. Cell survival was measured using a standard colorimetric MTT (3-(4,5-dimethylthiazol-2-yl)-2,5-diphenyltetrazolium bromide) assay for cell survival MTT is a pale yellow substrate that is cleaved by living cells to yield a dark blue formazan product.
Cytotoxicity assay. Cell viability was determined by a modified version of 3-(4,5-dimethylthiazol-2-yl)-2,5-diphenyl tetrazolium bromide (MTT) assay based on the standard procedure (Maher, et al., Brain Research. (2007), supra). Cells were seeded onto 96-well microtiter plates at a density of 5×10^3 cells per well. For the in vitro ischemia assay, the next day, the medium was replaced with DMEM supplemented with 7.5% DFCS and the cells were treated with 20 μM iodoacetic acid (IAA) alone or in the presence of the different derivatives. After 2 hr the medium in each well was aspirated and replaced with fresh medium without IAA but containing the derivatives. 20 hr later, the medium in each well was aspirated and replaced with fresh medium containing 2.5 μg/ml MTT. After 4 hr of incubation at 37° C., the cells were solubilized with 100 μl of a solution containing 50% dimethylformamide and 20% SDS (pH 4.7). The absorbance at 570 nm was measured on the following day with a microplate reader (Molecular Devices). Results were confirmed by visual inspection of the wells. Controls included compound alone to test for toxicity and compound with no cells to test for interference with the assay chemistry.
For a primary screen, an in vitro ischemia model in combination with the HT22 nerve cell line (Maher, et al., Brain Research. (2007) 1173, 117-125) was chosen. […] To induce ischemia in the HT22 cells we used iodoacetic acid (IAA), a well-known, irreversible inhibitor of the glycolytic enzyme glyceraldehyde 3-phosphate dehydrogenase (G3PDH) (Winkler, et al., Exp. Eye Res. (2003) 76, 715-723). IAA has been used in a number of other studies to induce ischemia in nerve cells (Reshef, et al., Neurosci. Lett. (1997) 238, 37-40; Sperling, et al., Neursci. Lett. (2003) 351, 137-140; Rego, et al., Neurochem. Res. (1999) 24, 351-358; Sigalov, et al,. J. Mol. Neurosci. (2000) 15, 147-154; and Reiner, et al., Neurosci. Lett. (1990) 119, 175-178), including several recent screens for neuroprotective molecules (Biraboneye, et al., J. Med. Chem. (2009) 52 (14), 4358-4369; Biraboneye, et al., Chem. Med. Chem. (2010) 5 (1), 79-85). The changes following IAA treatment of neural cells are very similar to those seen in animal models of ischemic stroke (Lipton, et al., Physiol. Rev. (1999) 79, 1431-1568) and include alterations in membrane potential (Reiner, et al., Neurosci. Lett. (1990) 119, 175-178), breakdown of phospholipids (Taylor, et al., J. Pharmacol. Exp. Ther. (1996) 276, 1224-1231), loss of ATP (Winkler, et al., Exp. Eye Res. (2003) 76, 715-723; Sperling, et al., Neursci. Lett. (2003) 351, 137-140) and an increase in reactive oxygen species (ROS) (Taylor, et al., J. Pharmacol. Exp. Ther. (1996), supra; and Sperling, et al., Neursci. Lett. (2003) 351, 137-140).
The roles of the four different hydroxyl groups in the activity of Fisetin were studied. […] Cell viability was determined after 24 hr by the MTT assay. The ability to maintain GSH (GSH) was determined by treating HT22 cells with different doses of each derivative (1-10 μM) in the presence of 5 mM glutamate. After 24 hr cell extracts were prepared and analyzed for total GSH. Fisetin (10 μM) was used as a positive control. […]

N9 microglial cells = test: anti-inflammatory assay, LPS-induced microglial activation (NO release); assay type: cell-based, mouse; conditions: bacterial lipopolysaccharide, derivative 1-10 μM, 24 hr
Description: Anti-inflammatory assay. Mouse N9 microglial cells plated in DME with 7.5% DFCS were treated with 10 μg/ml bacterial lipopolysaccharide (Sigma) alone or in the presence of the Fisetin derivatives (1-10 μM) or Fisetin (10 μM) as a positive control. After 24 hr the medium was removed, spun briefly to remove floating cells and 100 μl assayed for NO using 100 μl of the Griess Reagent (Sigma) in a 96 well plate. After incubation for 10 min at room temperature the absorbance at 550 nm was read on a microplate reader.
Three secondary screens allowed assessment of three key activities of Fisetin that are highly relevant to stroke, as well as other neurological disorders: maintenance of glutathione (GSH), the major endogenous cellular antioxidant, inhibition of LPS-induced microglial activation, an indicator of anti-inflammatory activity and PC12 cell differentiation, a measure of neurotrophic activity. All of these activities are relevant to the nerve cell loss seen in stroke (Gelderblom, et al., Stroke. 2009, 40 (5), 1849-1857; Pandya, et al., Cent. Nerv. Syst. Agents. Med. Chem. (2011) Apr. 27; Lewerenz, et al., J. Neurochem. (2010) 113 (2), 502-504). […] To assess GSH maintenance, total intracellular GSH levels after a 24 hr treatment with the compound both in the absence and presence of glutamate, an inducer of GSH loss and oxidative stress (Tan, et al., Curr. Top. Med. Chem. (2001) 1, 497-506; Maher, et al., Free Radical Research. (2006) 40 (10), 1105-1111) was measured Inhibition of LPS-induced microglial activation was determined by treating N9 mouse microglial cells with LPS alone and in the presence of the compounds and assaying NO release into the medium 24 hr later (Zheng, et al., Int. Immunopharmacol. (2008) 8, (3), 484-494). PC12 cell differentiation was determined by treating PC12 cells with the compounds and looking at neurite outgrowth after 24 hr. In all cases, Fisetin was used as a positive control (Sagara, et al., J. Neurochem. (2004) 90, 1144-1155).
The roles of the four different hydroxyl groups in the activity of Fisetin were studied. […] Cell viability was determined after 24 hr by the MTT assay. The ability to maintain GSH (GSH) was determined by treating HT22 cells with different doses of each derivative (1-10 μM) in the presence of 5 mM glutamate. After 24 hr cell extracts were prepared and analyzed for total GSH. Fisetin (10 μM) was used as a positive control. The ability to induce PC12 cell differentiation (PC12 diff'n) was determined by treating PC12 cells in N2 medium with different doses of each derivative (1-10 μM) for 24 hr. Differentiation was assessed by visual inspection with Fisetin (10 μM) as a positive control. Anti-inflammatory activity (microglia) was assessed in N9 microglial cells treated with bacterial lipopolysaccharide alone or in the presence different doses of each derivative (1-10 μM) for 24 hr. Fisetin was used as a positive control. TEAC values, a measure of direct antioxidant activity, were determined using the ABTS+ decolorization assay.

SMILES | improvement of neuroprotective activity/potency over Fisetin (HT22 cells) | EC50 in vitro ischemia (HT22 cells) | microglia (anti-inflammatory activity) (N9 microglial cells) [%] | further enhancement of neuroprotective activity (HT22 cells; benzene ring added to A ring, relative to CMS-04P) [fold] | enhancement of neuroprotective activity relative to CMS-027 (HT22 cells; relative to CMS-027) [fold]
O=c1cc(-c2ccc(O)c(O)c2)oc2ccccc12 [PM-001] | 6 fold |  |  |  | 
O=c1cc(-c2ccc(O)c(O)c2)oc2ccc3ccccc3c12 [PM-003] | ~40 fold |  |  |  | 
COc1cc(-c2ccc([N+](=O)[O-])c(O)c2)nc2ccccc12 [CMS-111, 4-methoxy-2-(3-hydroxy-4-nitrophenyl)quinoline] |  | no | 25 |  | 
Cc1ccc2oc(-c3ccc(O)c(O)c3)c(O)c(=O)c2c1 [PM-010, 2-(3,4-dihydroxyphenyl)-3-hydroxy-6-methyl-4H-chromen-4-one] | 10-100 fold |  |  |  | 
CCOc1ccc(/C=C/C(=O)c2ccc3ccccc3c2O)cc1OCC [CMS-032, (E)-3-(3,4-diethoxyphenyl)-1-(1-hydroxynaphthalen-2-yl)prop-2-en-1-one] |  | no | 5 |  | 
COc1cc(-c2ccc(N3CCCC3)cc2)nc2ccccc12 [CMS-110, 4-methoxy-2-(4-(pyrrolidin-1-yl)phenyl)quinoline] |  | no | 67 |  | 
O=c1c(O)c(-c2ccc(O)c(O)c2)oc2c1ccc1ccccc12 [CMS-040, 2-(3,4-dihydroxyphenyl)-3-hydroxy-4H-benzo[h]chromen-4-one] |  |  | 91 | ~5.5 | 
CCOc1ccc(-c2cc(OC)c3ccccc3n2)cc1OCC [CMS-004, 4-methoxy-2-(3,4-diethoxyphenyl)quinoline] |  | no | 76 |  | 
O=c1cc(-c2ccc(O)c(O)c2)oc2c1ccc1ccccc12 [CMS-02P, reference compound] | ~40 fold |  | 55 |  | 
Cc1cc2oc(-c3ccc(O)c(O)c3)cc(=O)c2cc1C [CMS-028, 2-(3,4-dihydroxyphenyl)-6,7-dimethyl-4H-chromen-4-one] |  |  | 93 |  | 2
COc1cc(-c2ccc(O)cc2)nc2ccccc12 [CMS-022, 4-methoxy-2-(4-hydroxyphenyl)quinoline] |  | no | 4 |  | 
COc1ccc(-c2cc(OC)c3ccccc3n2)cc1O [CMS-001, 4-methoxy-2-(3-hydroxy,4-methoxyphenyl)quinoline] |  | no | 69 |  | 
CCOc1ccc(-c2cc(=O)c3ccc4ccccc4c3o2)cc1OCC [CMS-038, 2-(3,4-diethoxyphenyl)-4H-benzo[h]chromen-4-one] |  | no | 2 |  | 
CCOc1ccc(-c2cc(=O)c3cc(C)c(C)cc3o2)cc1OCC [CMS-018, 2-(3,4-diethoxyphenyl)-6,7-dimethyl-4H-chromen-4-one] |  | no | 2 |  | 
CCOc1ccc(/C=C/C(=O)c2cc(C)c(C)cc2O)cc1OCC [CMS-013, (E)-3-(3,4-diethoxyphenyl)-1-(2-hydroxy-4,5-dimethylphenyl)prop-2-en-1-one] |  | no | 56 |  | 
